Experimental data from US20250034182A1, “PHOSPHOLIPID COMPOUNDS AND METHODS OF MAKING AND USING THE SAME” (priority 2021, published 2025).

Columns and labels:
Format in all cases: cell-based
[1] = test system: dengue virus type 2 in Huh7 hepatoblastoma cells; assay: Dengue Virus-2 Huh-7 EC50 (Example W); conditions: MOI of 0.07, CPE, neutral red dye, read-out: Dengue Virus-2 Huh-7 EC50 (nM) (per Ex. W)
Procedure: (§1) Huh7 hepatoblastoma cells were seeded onto 96-well plates and incubated at 37° C. with 5% CO2 overnight. The plates were seeded at a cell concentration that will yield >70% confluent monolayers in each well after overnight incubation. Eight 3-fold serial dilutions of compounds were diluted in test media (MEM supplemented with 2% FBS and 50 μg/mL gentamicin). The highest test compound concentration was 50 μg/mL. 100 μL of each concentration was added to 5 test wells on the 96-well plate. Of these 5 test wells, 3 wells of each dilution were infected with dengue virus type 2, diluted in test media (approximately 2000 CCID50 per well for an MOI of 0.07). Test medium (100 μL) with no virus was added to 2 wells to represent the uninfected cytotoxicity controls. Six additional infected wells received 100 μL media alone as untreated virus controls. Further, 100 μL of media alone was added to 6 uninfected wells to serve as uninfected, untreated controls. Cultures were incubated at 37° C.+5% CO2 until >80% CPE is observed. After cytopathic effect (CPE) is observed microscopically, 0.011% neutral red dye was added for approximately 2 hours. The neutral red dye was removed and wells were rinsed once with PBS to remove residual, unincorporated dye. A 50:50 Sorensen citrate buffer/ethanol solution was added and incubated at room temperature for >30 minutes with agitation, followed by measurement of neutral red dye using a spectrophotometer at 540 nm. The resulting optical density measurement was converted to percent signal of the infected, untreated cell control normalizing to virus controls. EC50 and CC50 values were determined by linear regression analysis.

in vitro = conditions: human
Procedure: as §1

[2] = test system: Recombinant Respiratory Syncytial virus strain A2 containing the firefly luciferase reporter (RSV-Fluc) in NHBE cells; assay: RSV NHBE FLuc EC50 (Example I); conditions: human respiratory syncytial virus, 72 h, read-out: RSV NHBE FLuc EC50 (nM) (per Ex. I)
Text: Normal human bronchial epithelial (NHBE) cells are purchased from Lonza (Walkersville, MD Cat #CC-2540) and maintained in Bronchial Epithelial Cell Growth Medium (BEGM) (Lonza, Walkersville, MD, Cat #CC-3170) with all provided supplements in the BulletKit. Cells are passaged 2-3 times per week to maintain sub-confluent densities and are used for experiments at passages 2-4.
Recombinant Respiratory Syncytial virus strain A2 containing the firefly luciferase reporter between the P and M genes (RSV-Fluc, 6.3×10^6 TCID50/mL) is purchased from Viratree (Durham, NC, Cat #R^145).
NHBE cells (5×10^3/well) are seeded in 100 μL white wall/clear bottom 96-well plates (Corning) with culture medium and are incubated for 24 hours at 37° C. with 5% CO2. On the following day, three-fold serial dilutions of compounds prepared in DMSO are added to the wells using the HP D300e digital dispenser with normalization to the highest concentration of DMSO in all wells. The cells are then infected with RSV-Fluc diluted with BEGM media at an MOI of 0.1 for a final volume of 200 μL media/well. Uninfected and untreated wells are included as controls to determine compound efficacy against RSV-Fluc. Following incubation with compound and virus for three days at 37° C. with 5% CO2, 100 μL of culture supernatant is removed from each well and replaced with 100 μL of ONE-Glo luciferase reagent (Promega, Madison, WI, Cat #E6110). The plates are gently mixed by rocking for 10 minutes at 21° C. and luminescence signal is measured using an Envision plate reader (PerkinElmer). Values are normalized to the uninfected and infected DMSO controls (0% and 100% infection, respectively). Non-linear regression analysis is applied to determine the compound concentration at which 50% luminescence signal is reduced (EC50) using the XLfit4 add-in for MICROSOFT®EXCEL®. All experiments are performed in duplicate with two technical repeats each.

In the case of `CCCCCCCCCCCCCCCCC[C@@H](COP(=O)(O)OC[C@@]1(C#N)O[C@@H](c2ccc3c(N)ncnn23)[C@H](O)[C@@H]1O)OCc1cc(F)cc(C#N)c1` [Compound 74, ((2R,3S,4R)-5-(4-aminopyrrolo[2,1-f][1,2,4]triazin-7-yl)-2-cyano-3,4-dihydroxytetrahydrofuran-2-yl)methyl ((S)-2-((3-cyano-5-fluorobenzyl)oxy)nonadecyl) hydrogen phosphate], the EC50 [1] is reported as 10000 nM and the CC50 (in vitro) is reported as 15 µM.
Work on `CCCCCCCCCCCCCCCCCCOC[C@@H](COP(=O)(O)OC[C@@]1(C#N)O[C@@H](c2ccc3c(N)ncnn23)[C@H](O)[C@@H]1O)Oc1ccc(C#N)nc1` [Compound 72, ((2R,3S,4R,5S)-5-(4-aminopyrrolo[2,1-f][1,2,4]triazin-7-yl)-2-cyano-3,4-dihydroxytetrahydrofuran-2-yl)methyl ((S)-2-((6-cyanopyridin-3-yl)oxy)-3-(octadecyloxy)propyl) hydrogen phosphate] yielded an EC50 [1] of 2400 nM and a CC50 (in vitro) of 17 µM.
In the case of `CCCCCCCCCCCCCCOC[C@H](COP(=O)(O)OC[C@@]1(C#N)O[C@@H](c2ccc3c(N)ncnn23)[C@H](O)[C@@H]1O)Oc1cc(C#N)ccn1` [Compound 69, ((2R,3S,4R)-5-(4-aminopyrrolo[2,1-f][1,2,4]triazin-7-yl)-2-cyano-3,4-dihydroxytetrahydrofuran-2-yl)methyl ((R)-2-((4-cyanopyridin-2-yl)oxy)-3-(tetradecyloxy)propyl) hydrogen phosphate], the EC50 [2] is reported as 29 nM.
In the case of `CCCCCCCCCCCCCCCCCCC[C@H](COP(=O)(O)OC[C@@]1(C#N)O[C@@H](c2ccc3c(N)ncnn23)[C@H](O)[C@@H]1O)Oc1ccc(C#N)c(OC(C)C)c1` [Compound 38, ((2R,3S,4R,5S)-5-(4-aminopyrrolo[2,1-f][1,2,4]triazin-7-yl)-2-cyano-3,4-dihydroxytetrahydrofuran-2-yl)methyl ((R)-2-(4-cyano-3-isopropoxyphenoxy)henicosyl) hydrogen phosphate], the EC50 [2] is reported as 23 nM, the EC50 [1] is reported as 2900 nM and the CC50 (in vitro) is reported as 5.8 µM.
Molecule `CCCCCCCCCCCCCCCCCCOC[C@H](COP(=O)(O)OC[C@@]1(C#N)O[C@@H](c2ccc3c(N)ncnn23)[C@H](O)[C@@H]1O)OCc1ccc(C#N)c(-n2cncn2)c1` [Compound 16, ((2R,3S,4R,5S)-5-(4-aminopyrrolo[2,1-f][1,2,4]triazin-7-yl)-2-cyano-3,4-dihydroxytetrahydrofuran-2-yl)methyl ((R)-2-((4-cyano-3-(1H-1,2,4-triazol-1-yl)benzyl)oxy)-3-(octadecyloxy)propyl) hydrogen phosphate] has an EC50 [2] of less than 6 nM, an EC50 [1] of 3900 nM and a CC50 (in vitro) of 24 µM.
`CCCCCCCCCCCCCCCCCCOCC(COc1cc(F)cc(C#N)c1)COP(=O)(O)OC[C@@]1(C#N)O[C@@H](c2ccc3c(N)ncnn23)[C@H](O)[C@@H]1O` (stereo partly drawn) [Compound 43, ((2R,3S,4R,5S)-5-(4-aminopyrrolo[2,1-f][1,2,4]triazin-7-yl)-2-cyano-3,4-dihydroxytetrahydrofuran-2-yl)methyl (3-(3-cyano-5-fluorophenoxy)-2-((octadecyloxy)methyl)propyl) hydrogen phosphate] gave an EC50 [2] of 129 nM, an EC50 [1] of 9700 nM and a CC50 (in vitro) of 14 µM.
In the case of `CCCCCCCCCCCCCCCCCCCC[C@H](COP(=O)(O)OC[C@@]1(C#N)O[C@@H](c2ccc3c(N)ncnn23)[C@H](O)[C@@H]1O)OCc1cc(F)cc(C#N)c1` [Compound 34, ((2R,3S,4R)-5-(4-aminopyrrolo[2,1-f][1,2,4]triazin-7-yl)-2-cyano-3,4-dihydroxytetrahydrofuran-2-yl)methyl ((R)-2-((3-cyano-5-fluorobenzyl)oxy)docosyl) hydrogen phosphate], the EC50 [1] is reported as 15000 nM and the CC50 (in vitro) is reported as 15 µM.
Work on `CCCCCCCCCCCCCCCCCCOC[C@H](COP(=O)(O)OC[C@@]1(C#N)O[C@@H](c2ccc3c(N)ncnn23)[C@H](O)[C@@H]1O)Oc1ccc(C#N)c(OC(C)C)c1` [Compound 23, ((2R,3S,4R,5S)-5-(4-aminopyrrolo[2,1-f][1,2,4]triazin-7-yl)-2-cyano-3,4-dihydroxytetrahydrofuran-2-yl)methyl ((R)-2-(4-cyano-3-isopropoxyphenoxy)-3-(octadecyloxy)propyl) hydrogen phosphate] yielded an EC50 [2] of 16 nM, an EC50 [1] of 8600 nM and a CC50 (in vitro) of 26 µM.
For `CCCCCCCCCCCCCCCCCCC[C@H](COP(=O)(O)OC[C@@]1(C#N)O[C@@H](c2ccc3c(N)ncnn23)[C@H](O)[C@@H]1O)Oc1cc(OC)c(C#N)c(OC)c1` [Compound 39, ((2R,3S,4R,5S)-5-(4-aminopyrrolo[2,1-f][1,2,4]triazin-7-yl)-2-cyano-3,4-dihydroxytetrahydrofuran-2-yl)methyl ((R)-2-(4-cyano-3,5-dimethoxyphenoxy)henicosyl) hydrogen phosphate], the EC50 [1] was 9100 nM and the CC50 (in vitro) was 14 µM.
With `CCCCCCCCCCCCCCCCCCC[C@H](COP(=O)(O)OC[C@@]1(C#N)O[C@@H](c2ccc3c(N)ncnn23)[C@H](O)[C@@H]1O)OCc1ccc(C#N)c(OC(C)C)c1` [Compound 28, ((2R,3S,4R,5S)-5-(4-aminopyrrolo[2,1-f][1,2,4]triazin-7-yl)-2-cyano-3,4-dihydroxytetrahydrofuran-2-yl)methyl ((R)-2-((4-cyano-3-isopropoxybenzyl)oxy)henicosyl) hydrogen phosphate] the EC50 [2] was 28 nM, the EC50 [1] was 9500 nM and the CC50 (in vitro) was 19 µM.
With `CCCCCCCCCCCCCCCCCCC[C@H](COP(=O)(O)OC[C@@]1(C#N)O[C@@H](c2ccc3c(N)ncnn23)[C@H](O)[C@@H]1O)OCc1ccc(-n2cncn2)c(C#N)c1` [Compound 30, ((2R,3S,4R)-5-(4-aminopyrrolo[2,1-f][1,2,4]triazin-7-yl)-2-cyano-3,4-dihydroxytetrahydrofuran-2-yl)methyl ((R)-2-((3-cyano-4-(1H-1,2,4-triazol-1-yl)benzyl)oxy)henicosyl) hydrogen phosphate] the EC50 [1] was 1200 nM and the CC50 (in vitro) was 5.9 µM.
Work on `CCCCCCCCCCCCCCCCCCCC[C@@H](COP(=O)(O)OC[C@@]1(C#N)O[C@@H](c2ccc3c(N)ncnn23)[C@H](O)[C@@H]1O)OCc1cc(F)cc(C#N)c1` [Compound 70, ((2R,3S,4R)-5-(4-aminopyrrolo[2,1-f][1,2,4]triazin-7-yl)-2-cyano-3,4-dihydroxytetrahydrofuran-2-yl)methyl ((S)-2-((3-cyano-5-fluorobenzyl)oxy)docosyl) hydrogen phosphate] yielded an EC50 [1] of 12000 nM and a CC50 (in vitro) of 12 µM.
